This is an account of results in ChEMBL document CHEMBL1149958, “Conformationally restricted piperidinyl benzamides as 5-HT3 receptor antagonists” (Bioorg Med Chem Lett, 1992).

As usually defined, the pKa is the negative logarithm of the acid dissociation constant. Low readings indicate a group that gives up its proton readily, high ones a group that holds its proton tightly.

The subject of one series is Rattus norvegicus. Description: Antagonist potency towards serotonin 5-HT3 receptor was determined by inhibition of 5-HT induced bradycardia (Bezold-Jarisch reflex) in anaesthetized rat. Type of series: functional. The settings on record: for ED50: Rattus norvegicus, read-out: ID50 (the source's name).
The nature of series [1]: pKA value was determined. The series is classed as physicochemical.

`COc1cc(N)c(Cl)cc1C(=O)NC1CCN2C(C)CCC2C1` (stereo unspecified): the ED50 with Rattus norvegicus stood at 0.012 mg/kg.
Turning to `COc1cc(N)c(Cl)cc1C(=O)NC1CCN2CCOCC2C1` (stereo unspecified), the pKa in series [1] amounted to 6.3. The ED50 in the series on Rattus norvegicus is 0.017 mg/kg.
For `COc1cc(N)c(Cl)cc1C(=O)NC1CC(C)N2CCCC2C1` (stereo unspecified), the ED50 in the series on Rattus norvegicus turned out to be 0.29 mg/kg.
The same measure, in the same setting: for `COc1cc(N)c(Cl)cc1C(=O)NC1CCN2C(C)COCC2C1` (stereo unspecified) the value was 0.0095 mg/kg.
In the series on Rattus norvegicus, `COc1cc(N)c(Cl)cc1C(=O)NC1CCN2CCCC2C1` (stereo in doubt; 4a) showed an ID50 of more than 1000 µg/kg.
The same measure, in the same setting: under `COc1cc(N)c(Cl)cc1C(=O)NC1CCN2CCCC2C1` (stereo in doubt; 4b) stands 24 µg/kg.
On to `COc1cc(N)c(Cl)cc1C(=O)NC1CCN2C(C)CCCC2C1` (stereo unspecified) [BRL-20627], for which the pKa in series [1] turned out to be 9.2. Moreover, in the series on Rattus norvegicus, the ED50 turned out to be 0.225 mg/kg.
Regarding `CCN(CC)CCNC(=O)c1cc(Cl)c(N)cc1OC` [METOCLOPRAMIDE], in the series on Rattus norvegicus, the ED50 is 0.5 mg/kg.
For `CN1[C@@H]2CC[C@H]1C[C@@H](OC(=O)c1c[nH]c3ccccc13)C2` [TROPISETRON], the ED50 in the series on Rattus norvegicus came to 0.0014 mg/kg.
